These are literature values, as cited in patent publication US7125861B2, “Water-soluble chitosan-indole-3-propionic acid conjugates” (priority 2003, dated 2006).

The conditions of this data set: background statement on unconjugated indole-3-propionic acid.

Turning to `O=C(O)CCc1c[nH]c2ccccc12` [indole-3-propionic acid, 3-(3-Indolyl)propanoic acid], the solubility in water entry is “not water soluble”.
